Measured values from US12606528B2, “Methods and materials for inhibiting NF-kB activity” (University of Pittsburgh - Of the Commonwealth System of …, priority 2019, dated 2026).
Like-named read-outs stand apart in the source and are kept apart here.

Tests used:
NF-κB = NF-κB assay: THP1-NF-κB-LUC cells, LPS-stimulated secreted luciferase; assay type: cell-based; settings: THP1-NF-κB-LUC cells, read-out: IC50 (NF-κB assay)
Procedure, shortened: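 THP1-NF-κB-LUC cells (25k/well) were pretreated with compounds for 2 h, then stimulated with LPS (10 ng/mL) for 18 h. Secreted luciferase was measured and normalized to vehicle, and IC50 was fitted from the concentration series.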

TNF release = assay: TNF assay: TNF release from LPS-stimulated human PBMCs (TNF ELISA); assay type: cell-based; settings: PBMC, read-out: IC50 (TNF assay)
Procedure, shortened: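 TNF ELISA on supernatants read-out; cells were 10k human PBMCs/well given LPS at 10 ng/mL for 18 h after a 2 h compound pre-incubation across a concentration series, with IC50 derived for suppression of TNF secretion.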

[1] = LPS-stimulated human PBMCs, TNF ELISA
[2] = compounds 2 hours before LPS (10 ng/mL) for 18 hours, secreted luciferase
[3] = human PBMCs, compounds 2 hours before LPS (10 ng/ml) for 18 hours, supernatant TNF ELISA

IC50 (NF-κB; LPS-stimulated) [nM]	IC50 (TNF release; [1]) [µM]	IC50 (NF-κB; [2]) [nM]	IC50 (TNF release; [3]) [µM]	Compound
100 to 1000	1 to 10			Fc1ccc(-c2nc3ccc(-c4c[nH]nn4)cc3nc2-c2ccc(F)cc2)cc1 [BC19150]
		< 100	> 10	CC1Oc2cc(S(=O)(=O)Nc3ccc(F)cc3F)c(Cl)cc2NC1=O (centres unmarked) [BC19709]
< 100	> 10			O=C1CCCN1CCCNS(=O)(=O)c1ccc2nc(-c3ccc(F)cc3)c(-c3ccc(F)cc3)nc2c1 [BC19560]
		> 10000	> 10	O=c1c(S(=O)(=O)c2ccc(F)c(F)c2)cnc2ccccn12 [BC19257]
> 10000	1 to 10			N#Cc1ccc(NS(=O)(=O)c2cc3c(cc2Br)NC(=O)CCO3)cc1 [BC19695]
< 100	< 0.1			Cc1ccc(S(=O)(=O)c2nc(-c3ccccc3)oc2S(C)(=O)=O)cc1 [BC19260]
		> 10000	> 10	O=C1COc2cc(S(=O)(=O)NCc3ccc(F)cc3F)c(Br)cc2N1 [BC19393]
		1000 to 10000	> 10	CC1Oc2cc(S(=O)(=O)Nc3ccc(OC(F)(F)F)cc3)c(Br)cc2N(C)C1=O (centres unmarked) [BC19784]
100 to 1000	> 10			C#CCNC(=O)c1ccc2nc(-c3ccc(F)cc3F)c(-c3ccccc3)nc2c1 [BC19406]
100 to 1000	0.1 to 1			O=S(=O)(c1ccc(Cl)cc1)c1nc(-c2cccc(F)c2)oc1[S+]([O-])C1CCCCC1 (centres unmarked) [BC19353]
> 10000	1 to 10			O=C1CCOc2cc(S(=O)(=O)Nc3ccccc3)c(Br)cc2N1 [BC19689]
> 10000	> 10			CN(C)c1cccc(-c2nc3ccc(C(=O)O)cc3nc2-c2cccc(N(C)C)c2)c1 [BC19500]
100 to 1000	> 10			Cc1ccc(NS(=O)(=O)c2cc(Br)cc3c2OCCC(=O)N3)cc1Cl [BC19651]
< 100	> 10			CC(=O)N1CCN(c2ccc3nc(-c4ccc(F)cc4)c(-c4ccc(F)cc4)nc3c2)CC1 [BC19511]
< 100	0.1 to 1			Cc1ccc(-c2nc(S(=O)(=O)c3ccc(C)cc3)c(S(=O)(=O)C(C)C)o2)cc1 [BC19146]
> 10000	> 10			CCC[S+]([O-])c1sc(C2CCCCC2)nc1S(=O)(=O)c1ccc(Cl)cc1 (centres unmarked) [BC19645]
		1000 to 10000	> 10	COc1ccc(NS(=O)(=O)c2cc3c(cc2Br)NC(=O)C(CC(C)C)O3)cc1Cl (centres unmarked) [BC19780]

IC50 (NF-κB; LPS-stimulated) [nM]	IC50 (TNF release; [1]) [µM]	IC50 (NF-κB; [2]) [nM]	IC50 (TNF release; [3]) [µM]	Compound
		< 100	> 10	CC1Oc2c(cc(Br)cc2S(=O)(=O)NCc2ccc(OC(F)(F)F)cc2)NC1=O (centres unmarked) [BC19363]
		< 100	1 to 10	CCC1Oc2c(cc(Br)cc2S(=O)(=O)Nc2ccc(F)c(F)c2)N(C)C1=O (centres unmarked) [BC19925]
		< 100	> 10	CCC1Oc2cc(S(=O)(=O)Nc3ccc(C)cc3)c(Cl)cc2NC1=O (centres unmarked) [BC19753]
		> 10000	> 10	CC1Oc2cc(S(=O)(=O)NC3CCC(C(C)(C)C)CC3)c(Br)cc2NC1=O (centres unmarked) [BC19361]
100 to 1000	> 10			O=C1NCCOc2c1cc(Br)cc2S(=O)(=O)Nc1cccc(F)c1 [BC19610]
		< 100	> 10	CCc1cccc(NS(=O)(=O)c2cc(S(=O)(=O)CC)cc3c2OCC(=O)N3)c1 [BC19439]
		< 100	> 10	CC(C)CC1Oc2c(cc(Br)cc2S(=O)(=O)Nc2ccc(C(C)C)cc2)NC1=O (centres unmarked) [BC19765]
		> 10000	> 10	COc1ccc(NS(=O)(=O)c2cc3c(cc2Br)N(C)C(=O)C(C)O3)cc1Cl (centres unmarked) [BC19919]
		< 100	> 10	CC1Oc2c(cc(Br)cc2S(=O)(=O)Nc2ccc(F)cc2)N(C)C1=O (centres unmarked) [BC19911]
		< 100	1 to 10	CCc1ccc(NS(=O)(=O)c2cc(Cl)cc3c2OC(CC)C(=O)N3)cc1 (centres unmarked) [BC19742]
1000 to 10000	> 10			C#CCNC(=O)c1cccc2nc(-c3ccc(F)cc3)c(-c3ccc(F)cc3)nc12 [BC19321]
		< 100	> 10	CCS(=O)(=O)c1cc2c(c(S(=O)(=O)Nc3ccc(C)c(Cl)c3)c1)OCC(=O)N2 [BC19544]
100 to 1000	> 10			O=C(NCc1ccncc1)Nc1ccc2nc(-c3ccc(F)cc3)c(-c3ccc(F)cc3)nc2c1 [BC19572]
1000 to 10000	1 to 10			O=S(=O)(CC1CC1)c1sc(-c2ccc(Cl)cc2)nc1S(=O)(=O)c1ccc(F)cc1 [BC19539]
< 100	> 10			CC(C)c1ccc(NS(=O)(=O)c2cc(Br)cc3c2OCCC(=O)N3)cc1 [BC19687]
< 100	0.1 to 1			CC(C)C[S+]([O-])c1oc(-c2ccc(Cl)cc2)nc1S(=O)(=O)c1ccc(Cl)cc1 (centres unmarked) [BC19463]
		< 100	> 10	CCc1cccc(NS(=O)(=O)c2cc(Br)cc3c2OC(CC(C)C)C(=O)N3)c1 (centres unmarked) [BC19771]
